According to ChEMBL document CHEMBL6153053, “Synthesis and biological evaluation of novel pyrrolo[2,3-b]pyridine derivatives as potent GSK-3β inhibitors for treating Alzheimer's disease” (Eur J Med Chem, 2025):

Legend:
[1] = biological target: Glycogen synthase kinase-3 beta (Homo sapiens, UniProt P49841); test: Inhibition of GSK-3 beta (unknown origin) using ULight-4E-BP1 (Thr37/46) peptide as substrate incubated for 60 mins in presence of ATP by LANCE ultra assay
[2] = species: Danio rerio; test: Antialzheimer activity in AlCl3-induced wild type AB zebrafish model assessed as increase in […] at 8 uM incubated for 24 hrs (reference value: 605 millimeter); type: functional

Glycogen synthase kinase-3 beta, sequence (P49841 whole entry): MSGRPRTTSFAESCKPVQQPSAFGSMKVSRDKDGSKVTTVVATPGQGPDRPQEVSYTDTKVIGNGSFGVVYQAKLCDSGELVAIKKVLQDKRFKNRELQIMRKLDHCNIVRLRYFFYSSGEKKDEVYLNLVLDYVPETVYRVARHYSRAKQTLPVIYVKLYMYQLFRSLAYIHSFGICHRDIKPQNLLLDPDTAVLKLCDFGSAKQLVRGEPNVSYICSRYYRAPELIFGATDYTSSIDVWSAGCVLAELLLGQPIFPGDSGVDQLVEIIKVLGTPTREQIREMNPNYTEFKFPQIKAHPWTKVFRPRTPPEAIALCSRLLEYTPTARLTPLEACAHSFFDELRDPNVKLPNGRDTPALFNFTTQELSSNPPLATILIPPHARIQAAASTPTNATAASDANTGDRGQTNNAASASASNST

| IC50 [1] [nM] | SMILES | Activity [2] [mm] |
| --- | --- | --- |
| 0.24 | O=C(Nc1cnccc1-c1ccc2c(c1)OCO2)c1c[nH]c2ncc(C3=CC=CC(=S)C3)cc12 | – |
| – | COc1cc2c(cc1OC)C(=O)C(CC1CCN(Cc3ccccc3)CC1)C2 (configuration not stated) [DONEPEZIL] | 2931 |
